Experimental findings from ChEMBL document CHEMBL4190163 (2016) are described below.

What is called CC50 is the concentration at which the toxic effect on the cells reaches its halfway point.

The structures appear in SMILES notation. The source made the active and inactive calls. The rule behind the calls is not given here.

For assay [1], the system named is DU-145. Description: Cytotoxicity against human DU145 cancer stem cell spheroids assessed as reduction in cell viability at 5 to 10 uM after 5 to 6 days by MTS assay. Format: functional. (In general: Formazan colour is commonly taken as a measure of viable cells.)
Assay [2] relates to PC-3. Nature of the assay: Cytotoxicity against human PC3 cells after 48 hrs by MTS assay. The assay is classed as functional. The settings on record: PC-3, 48 h.
In assay [3] the test system is DU-145. Nature of the assay: Disruption of preformed spheroids in human DU145 cancer stem cells at 5 to 10 uM after 4 days by microscopic analysis. The assay is classed as functional.
Assay [4] deals with MDA-MB-231. Nature of the assay: Cytotoxicity against human MDA-MB-231 cells after 48 hrs by MTS assay. The assay is classed as functional. The following applies: MDA-MB-231, 48 h.
Assay [5] concerns DU-145. Description: Cytotoxicity against human DU145 cells after 48 hrs by MTS assay. The assay is classed as functional. The settings on record: DU-145, 48 h.
Assay [6] has as its system MIA PaCa-2. Description: Cytotoxicity against human MIAPaCa2 cells after 48 hrs by MTS assay. The assay is classed as functional. The following applies: MIA PaCa-2, 48 h.
The subject of assay [7] is BT-474. Description: Cytotoxicity against human BT474 cancer stem cell spheroids assessed as reduction in cell viability at 5 to 10 uM after 5 to 6 days by MTS assay. Format: functional.
Assay [8] has as its system BT-474. Nature of the assay: Disruption of preformed spheroids in human BT474 cancer stem cells at 5 to 10 uM after 4 days by microscopic analysis. Format: functional.
The test system of assay [9] is BT-474. Description: Cytotoxicity against human BT474 cells after 48 hrs by MTS assay. The settings on record: BT-474, 48 h. Format: functional.
The test system of assay [10] is JIMT-1. Nature of the assay: Cytotoxicity against human JIMT1 cells after 48 hrs by MTS assay. The assay is classed as functional. The following applies: JIMT-1, 48 h.
In assay [11] the test system is DU-145. Nature of the assay: Disruption of preformed spheroids in human DU145 cancer stem cells at 20 uM after 3 days by microscopic analysis. The assay is classed as functional, cell-based.
In assay [12] the test system is BT-474. Nature of the assay: Disruption of preformed spheroids in human BT474 cancer stem cells at 20 uM after 3 days by microscopic analysis. The assay is classed as functional, cell-based.
Assay [13] has as its system BT-474. Nature of the assay: Cytotoxicity against human BT474 cancer stem cell spheroids assessed as reduction in cell viability up to 20 uM after 3 to 5 days by MTS assay. Format: functional, cell-based.
Assay [14] concerns DU-145. Nature of the assay: Cytotoxicity against human DU145 cancer stem cell spheroids assessed as reduction in cell viability up to 20 uM after 3 to 5 days by MTS assay. The assay is classed as functional, cell-based.
Assay [15] relates to BT-474. Description: Potency index, ratio of salinomycin CC50 to test compound CC50 for human BT474 cells. Format: functional.
For assay [16], the system named is MIA PaCa-2. Description: Potency index, ratio of salinomycin CC50 to test compound CC50 for human MIAPaCa2 cells. The assay is classed as functional.
Assay [17] has as its system BT-474. Description: Cytotoxicity against human BT474 cancer stem cell spheroids assessed as reduction in cell viability at 5 uM after 5 to 6 days by MTS assay. The assay is classed as functional.
Assay [18] has as its system DU-145. Description: Cytotoxicity against human DU145 cancer stem cell spheroids assessed as reduction in cell viability at 5 uM after 5 to 6 days by MTS assay. Format: functional.
The subject of assay [19] is DU-145. Description: Potency index, ratio of salinomycin CC50 to test compound CC50 for human DU145 cells. The assay is classed as functional.
Assay [20] has as its system MDA-MB-231. Description: Potency index, ratio of salinomycin CC50 to test compound CC50 for human MDA-MB-231 cells. Format: functional.
Assay [21] has as its system BT-474. Description: Disruption of preformed spheroids in human BT474 cancer stem cells at 7.5 uM after 3 days by microscopic analysis. Format: functional, cell-based.
For assay [22], the system named is DU-145. Nature of the assay: Disruption of preformed spheroids in human DU145 cancer stem cells at 7.5 uM after 3 days by microscopic analysis. Format: functional, cell-based.

With `CCCCCCCCCCCCCCCCOC[C@@H](CO[C@@H]1O[C@H](CN)[C@@H](O)[C@H](O)[C@H]1N)OC`, the Activity in assay [1], in assay [3], in assay [7] and in assay [8] was 100% throughout. Further, the CC50 in assay [2] turned out to be 11 µM; in assay [4] it was 5.5 µM; in assay [5], 6 µM; in assay [6], 7 µM; in [9] it was 11.5 µM; in assay [10] it was 4.2 µM. The CC90 is 14 µM in [2]; 7 µM in assay [4]; 8.5 µM in assay [5]; 12 µM in assay [6]; 14 µM in assay [9]; 6.5 µM in assay [10].

On to `CCCCCCCCCCCCCCN`, for which the result in assay [11], in assay [12], in assay [13] and in assay [14] was inactive.

`CCCCCCCCCCCCCCCCOC[C@@H](CO[C@H]1O[C@H](CN)[C@@H](O)[C@H](O)[C@H]1N)OC`: the Activity in [1] is 100%; in assay [3] it was 100%; in [17], more than 95%; in assay [18] it was more than 95%; in assay [7], 100%; in [8], 100%. Besides, the half-maximal cytotoxic concentration (CC50) in assay [2] came out at 3.5 µM; in assay [4] it was 3 µM; in [5] it was 5.2 µM; in assay [6], 3.5 µM; in assay [9] it was 7.5 µM; in [10], 3.5 µM. The CC90 was determined as 6 µM in assay [2]; 4.5 µM in assay [4]; 7.4 µM in [5]; 6.5 µM in assay [6]; 9.5 µM in [9]; 4.9 µM in assay [10]. The Ratio in [15] was 2; in [16], 2; in assay [19] it was more than 4; in assay [20] it was more than 6.

`CCCCCCCCCCCCCCCCOC[C@H](CN)O[C@@H]1O[C@H](CO)[C@@H](O)[C@H](O)[C@H]1N`: the 50% cytotoxic concentration (CC50) in assay [2] turned out to be 9.5 µM; in assay [4], 12 µM; in assay [5] it was 17.5 µM; in assay [6], 15 µM; in [9] it was 25 µM; in [10], 14 µM. For the same compound, the CC90 in [2] was 17 µM; in assay [4], 17.5 µM; in assay [5] it was 25 µM; in [6], 28 µM; in [9], more than 30 µM; in assay [10] it was 19 µM.

As to `CCCCCCCCCCCCCCCCOC[C@@H](N)CO[C@@H]1O[C@H](CO)[C@@H](O)[C@H](O)[C@H]1N`, the Activity in [1], in assay [3], in assay [7] and in assay [8] was 100% each time. In addition, the CC50 in assay [2] is 9 µM; in assay [4], 6 µM; in assay [5], 6 µM; in assay [6], 8.5 µM; in assay [9] it was 15.5 µM; in assay [10], 5.5 µM. Besides, the CC90 was found to be 14 µM in [2]; 9 µM in [4]; 9 µM in assay [5]; 14 µM in assay [6]; 28 µM in [9]; 7.5 µM in assay [10].

As to `CCCCCCCCCCCCCCCCOC[C@@H](CO[C@@H]1O[C@H](CN)[C@@H](O)[C@H](O)[C@H]1N1C(=O)c2ccccc2C1=O)OC`, the half-maximal cytotoxic concentration (CC50) in [2] is 15 µM; in [4], 20 µM; in assay [5], more than 30 µM.

Turning to `O=C(O)CCCc1ccc(N(CCCl)CCCl)cc1` [CHLORAMBUCIL], the half-maximal cytotoxic concentration (CC50) in [4] was more than 150 µM.

On to `CCCCCCCCCCCCCCCCOC[C@H](CN=[N+]=[N-])O[C@@H]1O[C@H](CO)[C@@H](O)[C@H](O)[C@H]1N`, for which the half-maximal cytotoxic concentration (CC50) turned out to be 6 µM in assay [2]; 11 µM in assay [4]; 12.5 µM in assay [5]; 11.5 µM in assay [6]; 22 µM in assay [9]; 9.5 µM in assay [10]. The CC90 in assay [2] worked out at 15 µM; in assay [4] it was 15 µM; in assay [5], 18 µM; in [6], 18.5 µM; in assay [9], 28 µM; in [10], 13.5 µM.

On to `CC[C@@H](C(=O)[C@@H](C)[C@@H](O)[C@H](C)[C@@H]1O[C@@H]([C@@H](CC)C(=O)O)CC[C@@H]1C)[C@H]1O[C@]2(C=C[C@@H](O)[C@]3(CC[C@@](C)([C@H]4CC[C@](O)(CC)[C@H](C)O4)O3)O2)[C@H](C)C[C@@H]1C` [SALINOMYCIN], for which the result in assay [21] and in assay [22] was Active. Moreover, the CC50 in assay [4] is more than 20 µM; in [5], more than 20 µM; in assay [6] it was 6.5 µM; in [9], 14 µM.

On to `CCCCCCCCCCCCCCCCOC[C@H](CO[C@@H]1O[C@H](CO)[C@@H](O)[C@H](O)[C@H]1N)NC(=O)CCCCCCCCCCCCCCC`, for which the CC50 in assay [4] is more than 30 µM.

In the case of `CCCCCCCCCCCCCCCCOC[C@@H](CO[C@@H]1O[C@H](CO)[C@@H](O)[C@H](O)[C@H]1N)OC`, the CC50 is 13.5 µM in [2]; 10 µM in assay [5]; 9 µM in [6]; 8 µM in assay [9]; 9 µM in assay [10]. The CC90 amounted to 28 µM in assay [2]; 15 µM in [5]; 18 µM in assay [6]; 13 µM in [9]; 16 µM in assay [10].

Take `CCCCCCCCCCCCCCCCOCCCO[C@@H]1O[C@H](CN)[C@@H](O)[C@H](O)[C@H]1N`: the Activity is recorded as 100% in assay [1]; 100% in [3]; more than 95% in assay [17]; more than 95% in assay [18]; 100% in [7]; 100% in [8]. Also, the CC50 was found to be 8 µM in assay [2]; 4.5 µM in assay [4]; 6 µM in [5]; 6.5 µM in [6]; 8.5 µM in assay [9]; 4 µM in [10]. For the same compound, the CC90 in assay [2] was determined as 14 µM; in [4], 7 µM; in assay [5], 8.5 µM; in assay [6], 13 µM; in assay [9] it was 17.5 µM; in [10] it was 6 µM.

For the compound `CCCCCCCCCCCCCCCCOC[C@H](CO[C@@H]1O[C@H](CN)[C@@H](O)[C@H](O)[C@H]1N)O[C@@H]1O[C@H](CN)[C@@H](O)[C@H](O)[C@H]1N`, the CC50 in assay [4] was more than 30 µM.

As to `CCCCCCCCCCCCCCCCOC[C@H](CO[C@@H]1O[C@H](CO)[C@@H](O)[C@H](O)[C@H]1N)NC(=O)OC`, the CC50 turned out to be 20 µM in assay [2]; 16 µM in assay [4]; 14 µM in assay [5]; 18 µM in assay [6]; 23 µM in assay [9]; 12.5 µM in [10]. The CC90 in [2] came out at 29 µM; in assay [4], 19 µM; in assay [5], 19 µM; in assay [6], 29 µM; in assay [9], 29 µM; in assay [10], 15 µM.
